This note sets out measurements from patent US10752587B2, “Homobispiperidinyl derivatives as liver X receptor beta agonists, compositions and their use” (Merck Sharp & Dohme Corp., priority 2015, dated 2020).

In test [1] the target is T1, glutathione-S-transferase (GST) tagged LXRbeta LBD (ligand binding domain) (Homo sapiens, UniProt P55055).
T1 construct: purchased Invitrogen pv4658.pps
T1 sequence (P55055 222-460 limits assumed): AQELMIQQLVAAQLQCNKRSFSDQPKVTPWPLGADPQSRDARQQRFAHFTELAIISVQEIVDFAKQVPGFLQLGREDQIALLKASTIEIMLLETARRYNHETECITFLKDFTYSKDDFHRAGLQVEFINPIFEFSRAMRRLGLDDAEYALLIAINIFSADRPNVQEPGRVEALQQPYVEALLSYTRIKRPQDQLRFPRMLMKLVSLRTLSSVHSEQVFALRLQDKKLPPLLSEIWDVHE
Briefly: LanthaScreen TR-FRET Liver X Receptor Coactivator Assay, co-activator recruitment to LXRbeta LBD. To be noted: for Emax: efficacy at max dose, in relation to reference dual agonist T0901317, read-out: LXR beta Activity @ max dose (%); for EC50: potency (Inflection Point, IP), co-activator recruitment to LXRbeta LBD, in relation to T0901317, read-out: LXR beta IP. It is filed as biochemical. The method, boiled down: (§1)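 LXRα- or LXRβ-LBD protein was added to test compounds, then fluorescein-labelled coactivator peptide plus Tb-anti-GST antibody; after room-temperature incubation, TR-FRET was read. Inflection point (IP) and Emax were expressed relative to the dual agonist reference T0901317.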

Test [2] has as its target T2, glutathione-S-transferase (GST) tagged LXRalpha LBD (ligand binding domain) (Homo sapiens, UniProt Q13133).
T2 construct: purchased Invitrogen pv4655
T2 sequence (Q13133 209-447 limits assumed): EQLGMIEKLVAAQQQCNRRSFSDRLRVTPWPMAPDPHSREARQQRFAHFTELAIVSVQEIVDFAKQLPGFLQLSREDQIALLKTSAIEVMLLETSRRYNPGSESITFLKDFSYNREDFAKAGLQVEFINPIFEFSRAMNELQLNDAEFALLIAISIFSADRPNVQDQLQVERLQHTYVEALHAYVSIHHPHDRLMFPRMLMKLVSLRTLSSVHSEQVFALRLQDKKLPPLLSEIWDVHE
Briefly: LanthaScreen TR-FRET Liver X Receptor Coactivator Assay, co-activator recruitment to LXRalpha LBD. The format is biochemical. To be noted: for Emax: efficacy at max dose, in relation to reference dual agonist T0901317, read-out: LXR alpha Activity @ max dose (%); for LXR alpha IP (nM) / EC50: potency (Inflection Point, IP), co-activator recruitment to LXRalpha LBD, in relation to T0901317; for EC50: read-out: LXR alpha IP. The method, boiled down: as §1
A general note: TR-FRET usually uses a lanthanide donor and a delayed reading to cut background.

For the molecule `COc1cccc(C(O)(C(=O)N2CCC(CCC3CCN(c4ccc(C(=O)N(C)C)c(Cl)c4)CC3)CC2)C(F)(F)F)c1` (centres unmarked) [Example 2-163, 2-chloro-N,N-dimethyl-4-[4-(2-{1-[3,3,3-trifluoro-2-hydroxy-2-(3-methoxyphenyl)propanoyl]piperidin-4-yl}ethyl)piperidin-1-yl]benzamide], in test [1], the Emax came to 39% and the EC50 worked out at 728 nM. In test [2], the Emax turned out to be 0% and the “LXR alpha IP (nM)” value is “NO IP”.
In the same order, the values of `CCOc1cccc([C@@](O)(C(=O)N2CCC(CC3CN(c4ccc(C(=O)N(C)C)c(OC)n4)C3)CC2)C(F)(F)F)c1` [Example 7-22, 6-[3-({1-[(2R)-2-(3-ethoxyphenyl)-3,3,3-trifluoro-2-hydroxypropanoyl]piperidin-4-yl}methyl)azetidin-1-yl]-2-methoxy-N,N-dimethylpyridine-3-carboxamide] are 45%, 1270 nM, 0% and “NO IP”.
`NC(=O)c1ccc(N2CCC(CC3CCN(C(=O)[C@](O)(c4cccc(Cl)c4)C(F)(F)F)CC3)CC2)cc1Cl` [Example 12-5, 2-chloro-4-[4-({1-[(2R)-2-(3-chlorophenyl)-3,3,3-trifluoro-2-hydroxypropanoyl]-piperidin-4-yl}-methyl)piperidin-1-yl]benzamide]: in test [1], the Emax amounted to 76% and the EC50 is 4 nM. In test [2], the Emax worked out at 38% and the EC50 was 32 nM.
With `CN(C)C(=O)c1ccc(N2CCC(CC3CCCN(C(=O)[C@](O)(c4ccccc4)C(F)(F)F)CC3)CC2)cc1Cl` (stereo partly drawn) [Example 2-160, 2-chloro-N,N-dimethyl-4-[4-({1-[(2R)-3,3,3-trifluoro-2-hydroxy-2-phenyl-propanoyl]azepan-4-yl}methyl)piperidin-1-yl]benzamide], in test [1], the Emax came to 33% and the EC50 came out at 26 nM. In test [2], the Emax was found to be 12% and the “LXR alpha IP (nM)” value is listed as “NO IP”.
On the same counts, the results for `CN(C)C(=O)c1ccc(N2CCC(CC3CCN(C(=O)C(O)(c4cccc5ccccc45)C(F)(F)F)CC3)CC2)cc1Cl` (centres unmarked) [Example 2-168, 2-chloro-N,N-dimethyl-4-(4-{[1-(3,3,3-trifluoro-2-hydroxy-2-naphthalen-1-ylpropanoyl)piperidin-4-yl]methyl}piperidin-1-yl)benzamide] are 21%, 58 nM, 0% and “NO IP”.
Consider `CN(C)C(=O)c1ncc(N2CCC(CC3CCN(C(=O)C(O)(c4cccc(F)c4)C(F)(F)F)CC3)CC2)cc1Cl` (centres unmarked) [Example 2-7, 3-chloro-N,N-dimethyl-5-[4-({1-[3,3,3-trifluoro-2-(3-fluorophenyl)-2-hydroxy-propanoyl]piperidin-4-yl}methyl)piperidin-1-yl]pyridine-2-carboxamide], for which, in test [1], the Emax is 80% and the EC50 was 17 nM. In test [2], the Emax came to 30% and the EC50 stood at 464 nM.
As to `Cc1cc(N2CCC(CC3(C)CCN(C(=O)[C@](O)(c4cccc(OC(C)C)c4)C(F)(F)F)CC3)CC2)ccc1C(=O)N(C)C` [Example 2-77, N,N,2-trimethyl-4-{4-[(4-methyl-1-{(2R)-3,3,3-trifluoro-2-hydroxy-2-[3-(1-methylethoxy)phenyl]propanoyl}piperidin-4-yl)methyl]piperidin-1-yl}benzamide], in test [1], the Emax came to 44% and the EC50 turned out to be 45 nM. Also, in test [2], the Emax was determined as 2% and the “LXR alpha IP (nM)” value is recorded as “NO IP”.
On the same counts, the results for `COc1cccc([C@@](O)(C(=O)N2CCC(CN3CCN(c4ccc(C(=O)N(C)C)c(Cl)c4)CC3)CC2)C(F)(F)F)c1` [Example 6-4, 2-chloro-N,N-dimethyl-4-[4-({1-[(2R)-3,3,3-trifluoro-2-hydroxy-2-(3-methoxyphenyl)propanoyl]piperidin-4-yl}methyl)piperazin-1-yl]benzamide] are 34%, 192 nM, 4% and “NO IP”.
